According to ChEMBL document CHEMBL3885861, “Open TG-GATES”:

Species: Rattus norvegicus
Test: Open TG-GATES - Regimen: Single
Format: toxicity, organism-based, Sprague-Dawley
Design: regimen Single, gender Male, age 6 weeks
Settings: in vivo, po, 24 h, route gavage; for Bas / Eos / Hb / Ht / Lym / MCH / MCHC / MCV / Mono / Neu / Plat / RBC / Ret / WBC: tissue Blood; for KIDNEY_L / KIDNEY_R / KIDNEY_TOTAL: tissue Kidney; for LIVER: tissue Liver; for A/G / ALP / ALT / AST / BUN / CRE / Ca / Cl / DBIL / GLC / IP / K / LDH / Na / PL / RALB / TBIL / TC / TG / TP / gamma-GTP: tissue Plasma

SMILES: O=[N+]([O-])c1ccc2c(c1)Cc1ccccc1-2 [2-NITROFLUORENE]
- TERMINAL_BW (0 mg/kg, dose level Control): 226.9 g
- Bas (0 mg/kg, dose level Control): 0%
- Eos (0 mg/kg, dose level Control): 0.8%
- Hb (0 mg/kg, dose level Control): 12.7 g/dL
- Ht (0 mg/kg, dose level Control): 38.9%
- Lym (0 mg/kg, dose level Control): 78.4%
- MCH (0 mg/kg, dose level Control): 20.5 pg
- MCHC (0 mg/kg, dose level Control): 32.5%
- MCV (0 mg/kg, dose level Control): 63.1 fL
- Mono (0 mg/kg, dose level Control): 3.2%
- Neu (0 mg/kg, dose level Control): 16.8%
- Plat (0 mg/kg, dose level Control): 121 x10_4/uL
- RBC (0 mg/kg, dose level Control): 618 x10_4/ul
- Ret (0 mg/kg, dose level Control): 8.6%
- WBC (0 mg/kg, dose level Control): 96.1 x10_2/uL
- KIDNEY_L (0 mg/kg, dose level Control): 0.9 g
- KIDNEY_R (0 mg/kg, dose level Control): 0.9 g
- KIDNEY_TOTAL (0 mg/kg, dose level Control): 1.9 g
- LIVER (0 mg/kg, dose level Control): 10.2 g
- A/G (0 mg/kg, dose level Control): 1.1
- ALP (0 mg/kg, dose level Control): 1444.8 IU/L
- ALT (0 mg/kg, dose level Control): 41.6 IU/L
- AST (0 mg/kg, dose level Control): 69.6 IU/L
- BUN (0 mg/kg, dose level Control): 16.6 mg/dL
- CRE (0 mg/kg, dose level Control): 0.2 mg/dL
- Ca (0 mg/kg, dose level Control): 10.7 mg/dL
- Cl (0 mg/kg, dose level Control): 104.2 meq/L
- DBIL (0 mg/kg, dose level Control): 0.006 mg/dL
- GLC (0 mg/kg, dose level Control): 193.2 mg/dL
- IP (0 mg/kg, dose level Control): 6.8 mg/dL
- K (0 mg/kg, dose level Control): 4.1 meq/L
- LDH (0 mg/kg, dose level Control): 153.2 IU/L
- Na (0 mg/kg, dose level Control): 141.1 meq/L
- PL (0 mg/kg, dose level Control): 149 mg/dL
- RALB (0 mg/kg, dose level Control): 2.8 g/dL
- TBIL (0 mg/kg, dose level Control): 0 mg/dL
- TC (0 mg/kg, dose level Control): 79.8 mg/dL
- TG (0 mg/kg, dose level Control): 105.8 mg/dL
- TP (0 mg/kg, dose level Control): 5.4 g/dL
- gamma-GTP (0 mg/kg, dose level Control): 0.7 IU/L
- TERMINAL_BW (100 mg/kg, dose level Low): 220.2 g
- Bas (100 mg/kg, dose level Low): 0%
- Eos (100 mg/kg, dose level Low): 0.2%
- Hb (100 mg/kg, dose level Low): 12.8 g/dL
- Ht (100 mg/kg, dose level Low): 39.6%
- Lym (100 mg/kg, dose level Low): 79.6%
- MCH (100 mg/kg, dose level Low): 20.4 pg
- MCHC (100 mg/kg, dose level Low): 32.5%
- MCV (100 mg/kg, dose level Low): 62.8 fL
- Mono (100 mg/kg, dose level Low): 3.6%
- Neu (100 mg/kg, dose level Low): 15.4%
- Plat (100 mg/kg, dose level Low): 123.5 x10_4/uL
- RBC (100 mg/kg, dose level Low): 631.6 x10_4/ul
- Ret (100 mg/kg, dose level Low): 8.1%
- WBC (100 mg/kg, dose level Low): 113.4 x10_2/uL
- KIDNEY_L (100 mg/kg, dose level Low): 0.9 g
- KIDNEY_R (100 mg/kg, dose level Low): 1 g
- KIDNEY_TOTAL (100 mg/kg, dose level Low): 1.9 g
- LIVER (100 mg/kg, dose level Low): 10.1 g
- A/G (100 mg/kg, dose level Low): 1.2
- ALP (100 mg/kg, dose level Low): 1937 IU/L
- ALT (100 mg/kg, dose level Low): 39.8 IU/L
- AST (100 mg/kg, dose level Low): 82.2 IU/L
- BUN (100 mg/kg, dose level Low): 15.6 mg/dL
- CRE (100 mg/kg, dose level Low): 0.2 mg/dL
- Ca (100 mg/kg, dose level Low): 10.5 mg/dL
- Cl (100 mg/kg, dose level Low): 105.3 meq/L
- DBIL (100 mg/kg, dose level Low): 0.02 mg/dL
- GLC (100 mg/kg, dose level Low): 174.6 mg/dL
- IP (100 mg/kg, dose level Low): 6.7 mg/dL
- K (100 mg/kg, dose level Low): 4.3 meq/L
- LDH (100 mg/kg, dose level Low): 259.2 IU/L
- Na (100 mg/kg, dose level Low): 139.7 meq/L
- PL (100 mg/kg, dose level Low): 124.6 mg/dL
- RALB (100 mg/kg, dose level Low): 2.8 g/dL
- TBIL (100 mg/kg, dose level Low): 0.012 mg/dL
- TC (100 mg/kg, dose level Low): 64.2 mg/dL
- TG (100 mg/kg, dose level Low): 64.7 mg/dL
- TP (100 mg/kg, dose level Low): 5.2 g/dL
- gamma-GTP (100 mg/kg, dose level Low): 0.7 IU/L
- TERMINAL_BW (300 mg/kg, dose level Middle): 216.7 g
- Bas (300 mg/kg, dose level Middle): 0%
- Eos (300 mg/kg, dose level Middle): 0.4%
- Hb (300 mg/kg, dose level Middle): 13.1 g/dL
- Ht (300 mg/kg, dose level Middle): 40.4%
- Lym (300 mg/kg, dose level Middle): 73.4%
- MCH (300 mg/kg, dose level Middle): 20.4 pg
- MCHC (300 mg/kg, dose level Middle): 32.6%
- MCV (300 mg/kg, dose level Middle): 62.6 fL
- Mono (300 mg/kg, dose level Middle): 6%
- Neu (300 mg/kg, dose level Middle): 18.2%
- Plat (300 mg/kg, dose level Middle): 124.8 x10_4/uL
- RBC (300 mg/kg, dose level Middle): 645 x10_4/ul
- Ret (300 mg/kg, dose level Middle): 8.6%
- WBC (300 mg/kg, dose level Middle): 91 x10_2/uL
- KIDNEY_L (300 mg/kg, dose level Middle): 1 g
- KIDNEY_R (300 mg/kg, dose level Middle): 1 g
- KIDNEY_TOTAL (300 mg/kg, dose level Middle): 1.9 g
- LIVER (300 mg/kg, dose level Middle): 9.6 g
- A/G (300 mg/kg, dose level Middle): 1.2
- ALP (300 mg/kg, dose level Middle): 1406.4 IU/L
- ALT (300 mg/kg, dose level Middle): 35 IU/L
- AST (300 mg/kg, dose level Middle): 83.2 IU/L
- BUN (300 mg/kg, dose level Middle): 16.3 mg/dL
- CRE (300 mg/kg, dose level Middle): 0.2 mg/dL
- Ca (300 mg/kg, dose level Middle): 10.2 mg/dL
- Cl (300 mg/kg, dose level Middle): 104.9 meq/L
- DBIL (300 mg/kg, dose level Middle): 0.02 mg/dL
- GLC (300 mg/kg, dose level Middle): 165.6 mg/dL
- IP (300 mg/kg, dose level Middle): 7.7 mg/dL
- K (300 mg/kg, dose level Middle): 4.5 meq/L
- LDH (300 mg/kg, dose level Middle): 203 IU/L
- Na (300 mg/kg, dose level Middle): 139.3 meq/L
- PL (300 mg/kg, dose level Middle): 115.2 mg/dL
- RALB (300 mg/kg, dose level Middle): 2.8 g/dL
- TBIL (300 mg/kg, dose level Middle): 0.022 mg/dL
- TC (300 mg/kg, dose level Middle): 61.2 mg/dL
- TG (300 mg/kg, dose level Middle): 47.3 mg/dL
- TP (300 mg/kg, dose level Middle): 5.2 g/dL
- gamma-GTP (300 mg/kg, dose level Middle): 0.7 IU/L
- TERMINAL_BW (1000 mg/kg, dose level High): 211.8 g
- Bas (1000 mg/kg, dose level High): 0%
- Eos (1000 mg/kg, dose level High): 0.4%
- Hb (1000 mg/kg, dose level High): 13.6 g/dL
- Ht (1000 mg/kg, dose level High): 41.6%
- Lym (1000 mg/kg, dose level High): 79.4%
- MCH (1000 mg/kg, dose level High): 21 pg
- MCHC (1000 mg/kg, dose level High): 32.7%
- MCV (1000 mg/kg, dose level High): 64.2 fL
- Mono (1000 mg/kg, dose level High): 4%
- Neu (1000 mg/kg, dose level High): 15.6%
- Plat (1000 mg/kg, dose level High): 127.8 x10_4/uL
- RBC (1000 mg/kg, dose level High): 647.8 x10_4/ul
- Ret (1000 mg/kg, dose level High): 8.3%
- WBC (1000 mg/kg, dose level High): 75.6 x10_2/uL
- KIDNEY_L (1000 mg/kg, dose level High): 0.9 g
- KIDNEY_R (1000 mg/kg, dose level High): 0.9 g
- KIDNEY_TOTAL (1000 mg/kg, dose level High): 1.8 g
- LIVER (1000 mg/kg, dose level High): 9.6 g
- A/G (1000 mg/kg, dose level High): 1.1
- ALP (1000 mg/kg, dose level High): 1276 IU/L
- ALT (1000 mg/kg, dose level High): 29.8 IU/L
- AST (1000 mg/kg, dose level High): 74.4 IU/L
- BUN (1000 mg/kg, dose level High): 12.8 mg/dL
- CRE (1000 mg/kg, dose level High): 0.1 mg/dL
- Ca (1000 mg/kg, dose level High): 10.3 mg/dL
- Cl (1000 mg/kg, dose level High): 104.8 meq/L
- DBIL (1000 mg/kg, dose level High): 0.008 mg/dL
- GLC (1000 mg/kg, dose level High): 183.8 mg/dL
- IP (1000 mg/kg, dose level High): 7.6 mg/dL
- K (1000 mg/kg, dose level High): 4.1 meq/L
- LDH (1000 mg/kg, dose level High): 313.2 IU/L
- Na (1000 mg/kg, dose level High): 141 meq/L
- PL (1000 mg/kg, dose level High): 112.4 mg/dL
- RALB (1000 mg/kg, dose level High): 2.9 g/dL
- TBIL (1000 mg/kg, dose level High): 0.01 mg/dL
- TC (1000 mg/kg, dose level High): 57.2 mg/dL
- TG (1000 mg/kg, dose level High): 47.6 mg/dL
- TP (1000 mg/kg, dose level High): 5.5 g/dL
- gamma-GTP (1000 mg/kg, dose level High): 0.8 IU/L
